{"source": "patent US20110076332A1", "about": "“Dextran-chitosan based in-situ gelling hydrogels for biomedical applications” (priority 2009, published 2011)", "system": "Staphylococcus aureus (S. aureus)", "assay": "Bacterial attachment and biofilm formation on hydrogels in 96-well plates, MTS assay", "assay_type": "cell-based", "conditions": "whether or not a hydrogel was present", "protocol": "Determination of bacteriostatic action against S. Aureus bacteria: Staphylococcus aureus (S. aureus) was used to study the resistance of selected dextran-chitosan hydrogels of the present invention to bacterial attachment and biofilm formation. Six different types of gels, having different chitosan-to-dextran ratios, proteins and bactericidal drugs, with six replicates each, were prepared in 96-well plates under sterile conditions. FIG. 18 is a bar chart showing the relative extent of bacterial growth, as estimated by MTS assay, for the various cases studied.\nThe chitosan and dextran solutions used in this study were prepared as described above. With reference to the labels used in FIG. 17, hydrogels were prepared with chitosan-dextran ratios of 1:1 (“1:1”), 2:1 (“2:1”) and 3:1 (“3:1”). Wells with chitosan sheets alone (“CS”), empty wells (“10̂8”), wells with vancomycin alone (“10̂8+VMC”) and wells with PBS alone (“PBS”) were used as controls. Additional hydrogels having chitosan-dextran ratios of 2:1 were prepared with fibronectin (“2:1+FN”), vancomycin (“2:1+VMC”) or both (“2:1+FN+VMC”) were also studied to understand the effect of drug loading and release on bacterial colony formation.\nFor the study, triplicate plates of each combination were seeded with S. aureus at a concentration of 1.0×10^8 bacteria/ml. The bacteria were allowed to attach and grow overnight (16 hours). […]"}
{"molecule": "CN[C@H](CC(C)C)C(=O)N[C@H]1C(=O)N[C@@H](CC(N)=O)C(=O)N[C@H]2C(=O)N[C@H]3C(=O)N[C@H](C(=O)N[C@H](C(=O)O)c4cc(O)cc(O)c4-c4cc3ccc4O)[C@H](O)c3ccc(c(Cl)c3)Oc3cc2cc(c3O[C@@H]2O[C@H](CO)[C@@H](O)[C@H](O)[C@H]2O[C@H]2C[C@](C)(N)[C@H](O)[C@H](C)O2)Oc2ccc(cc2Cl)[C@H]1O", "note": "[vancomycin]", "values": [{"measurement": "bacterial colony formation", "value": "reduced bacterial colony formation"}]}
